Data taken from patent US12589143B2, “Human anti-PD-L1 peptide vaccines and methods of their use” (priority 2019, dated 2026).
Where no end group is shown, it is not given here.

Tests used:
[1] = test system: CT26 colon carcinoma cell line; experiment: CT26 WT tumor challenge in immunized Balb/c mice; format: in vivo; settings: for tumor inhibition versus PBS: Balb/c; for average tumor growth inhibition: day 14 and 16
Source text: FIGS. 5A, 5B, 5C, and 5D show the experimental scheme to test the immunization with PD-L1 in Balb/c mice. […] Balb/c mice 6-8 weeks old, were immunized with MVF-peptide immunogens emulsified in ISA 720 with nor-MDP three times and three weeks apart. Mice were immunized with MVF-PD-L1 vaccine constructs [PD-L1(36-53), PD-L1(50-67), PD-L1(95-112), PD-L1(130-147)] prior to tumor challenge. Blood was collected weekly and sera tested for antibody titers by ELISA. Two weeks after the third immunization (3Y), the mice were engrafted with CT26 WT tumor cells 10^5 per mouse Control mice were treated twice weekly with PBS as negative control and twice weekly with anti-mPD-L1 mAb (10F.9G2) as positive control starting 2 days after tumor challenge. Tumor growths were observed twice weekly and measured by calipers.
The peptide vaccines were dissolved in water and emulsified in Montanide ISA 720 (1:1) and 100 μg nor-MDP (N-acetylglucosamine-3yl-acetyl-1-alanyl-d-isoglutamine). Female Balb/c mice (Charles River Laboratories) at the age of 5 to 6 weeks were immunized three times at 3-week intervals with 100 μg peptide vaccine, and 15 days after the third immunization, the mice were challenged s.c. with CT-26 tumor cells (100,000 per mouse). Mice immunized with an irrelevant MVF peptide chimera were used as a negative control.
Mice treated twice a week with anti-mouse PD-L1 MAb (Bio X Cell, West Lebanon, NH) 200 ug/dose was used as a positive control. Tumor growth was monitored for up to 18 days after challenge. During immunization, blood was drawn biweekly and used in ELISA to monitor Ab titers. The mice were euthanized at the end of treatment and tumors extracted and weighed samples of the tumors were saved for further study and for histological examination. The spleens were also collected for further examination.
Two weeks after the third immunization (3Y), the mice were inoculated subcutaneously (s.c) with CT26 carcinoma cells (1×10^5 cells per mouse) and tumor formation was monitored on a daily basis afterwards. Mice treated with PBS served as negative control, and twice weekly treated mice with 200 μg/dose injections of anti-mouse PD-L1 monoclonal antibody (mAb clone 10F.9G2) served as positive control. Tumor growth was monitored daily and measured by caliper. […] PD-L1 B-cell epitope vaccines treatment had similar and significant reduction in tumor growth at day 16 post challenge as compared to negative control treatment with PBS (FIG. 9).
6-8 weeks old BALB/c mice (Charles River, Wilmington, MA) were used as standard animal models. Mouse CT26 colon carcinoma cell line was purchased from American Type Culture Collection Cells and were regularly cultured in RPMI1640 medium containing 10% FBS. CT26/HER2 cells were kindly provided by M. Penichet. Vaccines were dissolved in sterile water and emulsified in Montanide ISA 720 (1:1). Female Balb/c mice (Charles River Laboratories) at the age of 6-8 weeks were immunized three times at 3-week intervals with 100 μg of each peptide vaccine, and 2 weeks after the third immunization, the mice were challenged with CT26 and/or CT26/HER-2 tumor cells, which were implanted subcutaneously (s.c) on the right flank (1×10^5 per mouse). 200 μg of rat α-mouse PD-L1 mAb 10F.9G2 (Bio X Cell, West Lebanon, NH) were administered intraperitoneally (i.p.), twice weekly following tumor inoculation in the control group. Mice were monitored and scored for the formation of palpable tumors on a daily basis and sacrificed if tumors became necrotic or exceeded the predetermined size of 2,000 mm^3. Tumor volumes were measured in cubic millimeters with calipers and calculated with the following formula: A×B^2×0.5, where A is the largest diameter, and B is the widest point perpendicular to length. During immunization, blood was drawn weekly and used in ELISA to monitor antibody titers.
Tumor sizes were observed daily and measured by caliper. Tumor volumes were calculated by formula: Volume=(Length*Width*Width)/2. […]

MVF-PD-L1 peptides = experiment: Immunogenicity in rabbits: ELISA antibody titers of sera vs the immunogen; format: in vivo, New Zealand White rabbits; settings: after the second boost
Procedure: Immunogenicity of MVF-PD-L1 B-cell epitopes. New Zealand White rabbits were immunized with 1 mg of each MVF-peptide immunogens dissolved in dd H2O emulsified (1:1) in Montanide ISA 720 vehicle (Seppic) with 333 μg of N-acetylglucosamine-3yl-acetyl-1-alanyl-d-isoglutamine (nor-MDP). Rabbits were boosted with the same doses at 3-week's intervals. Blood was collected via the central auricular artery in rabbits. Blood was collected weekly (1Y+3, 2Y+1, 2Y+2,2Y+3, 3Y+1, 3Y+2 and sera tested for antibody titers by ELISA using the immunogens MVF-PD-L1 peptides. Sera (terminal) from rabbit (3Y+3) immunized with MVF-PD-1 peptide immunogens were tested individually versus the immunogen by ELISA. 200 ng/well peptide were used in duplicates to coat the ELISA plates. Titers are defined as the highest dilution of sera with an absorbance value of 0.2 after subtracting the blank.
For each peptide, vaccine antibodies were raised using New Zealand white rabbits purchased from Charles River Laboratories (Wilmington, MA, USA). […] Antibody titers were monitored by direct ELISA against the peptide immunogen, the peptide B cell epitope, and an acetylated version of the B-cell epitope. […] Peptide vaccine antibodies were purified by affinity chromatography using a protein A/G column and the concentration was measured by Coomassie protein assay. […]

Sequence | levels of lesions [1] | percentage of tumor growth inhibition compared to negative control [1] | tumor inhibition versus PBS [1] | survival rate ([1]; Kaplan-Meier method) | average tumor growth inhibition [1] | antibody titers (MVF-PD-L1 peptides)
KLLSLIKGVIVHRLEGVEGPSLVTSEHELTCQAEGYPKAE (KLLSLIKGVIVHRLEGVEGPSLVTSEHELTCQAEGYPKAE-NH2) [PD-L1(130)] | lowest levels of lesions | Significant higher percentage of tumor growth inhibition | significant inhibition of tumor growth | highest survival rate | strongest average tumor growth inhibition | 64,000
KLLSLIKGVIVHRLEGVEGPSLLIVYWEMEDKNIIQFVHG (KLLSLIKGVIVHRLEGVEGPSLLIVYWEMEDKNIIQFVHG-NH2) [PD-L1(36)] |  |  |  |  | strongest average tumor growth inhibition | 
KLLSLIKGVIVHRLEGVEGPSLFVHGEEDLKVQHSSYRQR (KLLSLIKGVIVHRLEGVEGPSLFVHGEEDLKVQHSSYRQR-NH2) [PD-L1(50)] |  |  | significant inhibition of tumor growth |  | strongest average tumor growth inhibition | 
KLLSLIKGVIVHRLEGVEGPSLYRCMISYGGADYKRITVK (KLLSLIKGVIVHRLEGVEGPSLYRCMISYGGADYKRITVK-NH2) [PD-L1(95)] |  |  |  |  |  | 64,000
